Results as given in ChEMBL document CHEMBL1201862, “PubChem BioAssay data set” (2004).
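These data come from cells grown in 96-well plates and exposed to compound for 48 hours at five concentrations. The concentration for 50% growth inhibition is given as GI50.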 Activity calls are given as the source filed them. Rule as the data show it: active = GI50 up to about 1.1 µM and inactive = higher.

Tests used:
Assay in all cases: NCI anticancer screen, dose series, 48 h
[1] = tested on: DU-145
[2] = tested on: HCT-15
[3] = tested on: Hs-578T
[4] = tested on: IGROV-1
[5] = tested on: K562
[6] = tested on: MDA-MB-231
[7] = tested on: MDA-MB-435
[8] = tested on: MDA-N
[9] = tested on: MOLT-4
[10] = tested on: NCI-H522
[11] = tested on: NCI/ADR-RES
[12] = tested on: RPMI-8226
[13] = tested on: SF-539
[14] = tested on: SNB-19
[15] = tested on: SW-620
[16] = tested on: TK-10
[17] = tested on: U-251
[18] = tested on: UACC-257
[19] = tested on: UACC-62
[20] = tested on: UO-31

Row | Structure (SMILES) | GI50 [1] | GI50 [2] [µM] | GI50 [3] | GI50 [4] | GI50 [5] | GI50 [6] | GI50 [7] | GI50 [8] | GI50 [9] | GI50 [10] | GI50 [11] | GI50 [12] | GI50 [13] | GI50 [14] | GI50 [15] | GI50 [16] | GI50 [17] | GI50 [18] | GI50 [19] | GI50 [20]
1 | CCCCCNC(=O)OC1CCn2c1nc1c2C(=O)C(C)=C(N2CC2)C1=O (stereo not given) | 0.351 µM (active) | 1.92 | 2.32 µM (inactive) | 1.37 µM (inactive) | 1.67 µM (inactive) | 2.01 µM (inactive) | 1.62 µM (inactive) | 1.5 µM (inactive) | 10.7 µM (inactive) | 0.769 µM (active) | 2.56 µM (inactive) | 2.4 µM (inactive) | 2 µM (inactive) | 2.9 µM (inactive) | 0.492 µM (active) | 4.83 µM (inactive) | 1.67 µM (inactive) | 1.67 µM (inactive) | 1.75 µM (inactive) | 1.83 µM (inactive)
2 | COc1cc2c3c(c1)CCCN3CCC2 | > 10 µM (inactive) | > 10 | > 10 µM (inactive) | > 10 µM (inactive) | > 10 µM (inactive) | > 10 µM (inactive) | > 10 µM (inactive) | > 10 µM (inactive) | > 10 µM (inactive) | > 10 µM (inactive) | > 10 µM (inactive) | > 10 µM (inactive) | > 10 µM (inactive) | > 10 µM (inactive) | > 10 µM (inactive) | > 10 µM (inactive) | > 10 µM (inactive) | > 10 µM (inactive) | > 10 µM (inactive) | > 10 µM (inactive)
3 | Cc1cnc2[nH]c(-c3ccccc3)cc(=O)c2c1 | 0.0395 µM (active) | 0.0212 | 0.0171 µM (active) | 0.0817 µM (active) | < 0.01 µM (active) | 0.217 µM (active) | < 0.01 µM (active) | < 0.01 µM (active) | 0.0252 µM (active) | < 0.0118 µM (active) | 0.012 µM (active) | 0.0219 µM (active) | 0.0246 µM (active) | 0.0904 µM (active) | < 0.01 µM (active) | 0.151 µM (active) | 0.0188 µM (active) | < 0.0218 µM (active) | < 0.0132 µM (active) | 0.0528 µM (active)
4 | C=CN1CCN(c2ccccc2)P1(=O)Oc1ccccc1 (stereo not given) | > 100 µM (inactive) | > 100 | 33.7 µM (inactive) | 53.7 µM (inactive) | > 100 µM (inactive) | 55.6 µM (inactive) | 90.6 µM (inactive) | 63.4 µM (inactive) | > 100 µM (inactive) | 31.6 µM (inactive) | 55.2 µM (inactive) | > 100 µM (inactive) | > 100 µM (inactive) | > 100 µM (inactive) | > 100 µM (inactive) | 39.9 µM (inactive) | > 100 µM (inactive) | > 100 µM (inactive) | 53.1 µM (inactive) | 20 µM (inactive)
5 | COc1cc(-c2cc(=O)c3cc4c(cc3[nH]2)OCO4)cc(OC)c1O | > 10 µM (inactive) | > 10 | > 10 µM (inactive) | > 10 µM (inactive) | > 10 µM (inactive) | > 10 µM (inactive) | > 10 µM (inactive) | > 10 µM (inactive) | > 10 µM (inactive) | > 10 µM (inactive) | > 10 µM (inactive) | > 10 µM (inactive) | > 10 µM (inactive) | > 10 µM (inactive) | > 10 µM (inactive) | > 10 µM (inactive) | > 10 µM (inactive) | > 10 µM (inactive) | > 10 µM (inactive) | > 10 µM (inactive)
6 | CC1(C)OC(=O)C(C)(C)OC1=O | > 100 µM (inactive) | > 100 | > 100 µM (inactive) | > 100 µM (inactive) | > 100 µM (inactive) | > 100 µM (inactive) | > 100 µM (inactive) | > 100 µM (inactive) | > 100 µM (inactive) | > 100 µM (inactive) | > 100 µM (inactive) | > 100 µM (inactive) | > 100 µM (inactive) | > 100 µM (inactive) | > 100 µM (inactive) | > 100 µM (inactive) | > 100 µM (inactive) | > 100 µM (inactive) | > 100 µM (inactive) | > 100 µM (inactive)
7 | CC(C)c1cc2c(cc1S(=O)(=O)O)[C@@]1(C)CCC[C@@](C)(C(=O)O)C1CC2 (stereo not given in full) | > 100 µM (inactive) | > 100 | > 100 µM (inactive) | > 100 µM (inactive) | > 100 µM (inactive) | > 100 µM (inactive) | > 100 µM (inactive) | > 100 µM (inactive) | > 100 µM (inactive) | > 100 µM (inactive) | > 100 µM (inactive) | > 100 µM (inactive) | > 100 µM (inactive) | > 100 µM (inactive) | > 100 µM (inactive) | > 100 µM (inactive) | > 100 µM (inactive) | > 100 µM (inactive) | > 100 µM (inactive) | > 100 µM (inactive)
8 | c1ccc(CCCCNCc2cc(CNCCCCc3ccccc3)cc(CNCCCCc3ccccc3)c2)cc1 | 0.762 µM (active) | 0.586 | 1.5 µM (inactive) | 0.815 µM (active) | 0.272 µM (active) | 1.61 µM (inactive) | 1.21 µM (inactive) | 2.36 µM (inactive) | 0.251 µM (active) | 0.667 µM (active) | 0.76 µM (active) | 0.16 µM (active) | 0.8 µM (active) | 0.714 µM (active) | 0.301 µM (active) | 1.82 µM (inactive) | 1.12 µM (inactive) | 0.859 µM (active) | 1.76 µM (inactive) | 0.261 µM (active)
9 | C=CCOC(=O)N1[C@H]2C#C/C=C\C#C[C@]3(O)C(=O)C[C@H](C)[C@]24O[C@]43C2=CC(=O)C=CC21OC (stereo not given in full) | 38.7 µM (inactive) | 31.4 | 49 µM (inactive) | 16.7 µM (inactive) | 42.2 µM (inactive) | 28.3 µM (inactive) | 16.6 µM (inactive) | 28.6 µM (inactive) | 3.72 µM (inactive) | 18.6 µM (inactive) | 43.8 µM (inactive) | 21.2 µM (inactive) | 20.6 µM (inactive) | 38.3 µM (inactive) | 32.8 µM (inactive) | 18.4 µM (inactive) | 37.7 µM (inactive) | 19.4 µM (inactive) | 31.2 µM (inactive) | 32 µM (inactive)
10 | COc1ccc2c(C)cc(N/N=C/c3ccc(C)s3)nc2c1 | 6.49 µM (inactive) | 4.21 | 31.6 µM (inactive) | 7.82 µM (inactive) | 3.61 µM (inactive) | 6.49 µM (inactive) | 16.3 µM (inactive) | 10.4 µM (inactive) | 5.94 µM (inactive) | 3.45 µM (inactive) | 9.82 µM (inactive) | 3.55 µM (inactive) | 13.6 µM (inactive) | 25.4 µM (inactive) | 13.1 µM (inactive) | 19 µM (inactive) | 13.7 µM (inactive) | 11 µM (inactive) | 20.1 µM (inactive) | 13.6 µM (inactive)
11 | N#Cc1ccc(/N=N/N2CCCC2)cc1 | 20.8 µM (inactive) | > 100 | > 100 µM (inactive) | > 100 µM (inactive) | 91 µM (inactive) | > 100 µM (inactive) | > 100 µM (inactive) | > 100 µM (inactive) | 61.2 µM (inactive) | > 100 µM (inactive) | > 100 µM (inactive) | 40.2 µM (inactive) | > 100 µM (inactive) | > 100 µM (inactive) | > 100 µM (inactive) | 95.9 µM (inactive) | > 100 µM (inactive) | > 100 µM (inactive) | > 100 µM (inactive) | 69.8 µM (inactive)
